Test results as given in ChEMBL document CHEMBL3045428, “Hypolipidemic, hepato-protective and renal damage recovering effects of catechin isolated from the methanolic extract of Cassia fistula stem bark on Streptozotocin-induced diabetic Wistar rats: a biochemical and morphological analysis” (Med Chem Res, 2012).
Activity calls are given as the source filed them. No cut-off for these calls is given here.

Columns and labels:
Rattus norvegicus [1] = assay: Nephroprotective activity in STZ-induced diabetic Rattus norvegicus Wistar albino (rat) assessed as reduction in glomerular expansion at 20 mg/kg, po administered via intragastric tube for 45 days using hematoxylin/eosin staining method; format: functional, organism-based; parameters: dose 20 mg/kg
Rattus norvegicus [2] = assay: Nephroprotective activity in STZ-induced diabetic Rattus norvegicus Wistar albino (rat) assessed as reduction in enlargement of glomerulus at 20 mg/kg, po administered via intragastric tube for 45 days using hematoxylin/eosin staining method; format: functional, organism-based; parameters: dose 20 mg/kg
Rattus norvegicus [3] = assay: Hepatoprotective activity in STZ-induced diabetic Rattus norvegicus Wistar albino (rat) assessed as re-apperance of hepatic lobules at 20 mg/kg, po administered via intragastric tube for 45 days using hematoxylin/eosin staining method; format: functional, organism-based; parameters: dose 20 mg/kg; conditions: Liver
Rattus norvegicus [4] = assay: Antidiabetic activity against STZ-induced diabetic Rattus norvegicus Wistar albino (rat) assessed as change in hemoglobin at 20 mg/kg, po administered via intragastric tube for 45 days (reference value: 8.5 +/-0.9 mg/dl); format: functional
Rattus norvegicus [5] = assay: Antidiabetic activity against STZ-induced diabetic Rattus norvegicus Wistar albino (rat) assessed as change in body weight at 20 mg/kg, po administered via intragastric tube for 45 days (reference value: 243.67 +/-8.9 g); format: functional
Rattus norvegicus [6] = assay: Hepatoprotective activity in STZ-induced diabetic Rattus norvegicus Wistar albino (rat) assessed as plasma ACP level at 20 mg/kg, po administered via intragastric tube for 45 days (reference value: 28.7 +/-2.61 ug/dl); format: functional
Rattus norvegicus [7] = assay: Hepatoprotective activity in STZ-induced diabetic Rattus norvegicus Wistar albino (rat) assessed as plasma ALP level at 20 mg/kg, po administered via intragastric tube for 45 days (reference value: 91.1 +/-9.2 ug/dl); format: functional
Rattus norvegicus [8] = assay: Hepatoprotective activity in STZ-induced diabetic Rattus norvegicus Wistar albino (rat) assessed as plasma ALT level at 20 mg/kg, po administered via intragastric tube for 45 days (reference value: 97.11 +/-10.3 ug/dl); format: functional
Rattus norvegicus [9] = assay: Hepatoprotective activity in STZ-induced diabetic Rattus norvegicus Wistar albino (rat) assessed as plasma AST level at 20 mg/kg, po administered via intragastric tube for 45 days (reference value: 85.5 +/-9.21 ug/dl); format: functional
Rattus norvegicus [10] = assay: Antidiabetic activity against STZ-induced diabetic Rattus norvegicus Wistar albino (rat) assessed as serum VLDL level at 20 mg/kg, po administered via intragastric tube for 45 days (reference value: 55.2 +/-4.5 mg/dl); format: functional
Rattus norvegicus [11] = assay: Antidiabetic activity against STZ-induced diabetic Rattus norvegicus Wistar albino (rat) assessed as serum LDL level at 20 mg/kg, po administered via intragastric tube for 45 days (reference value: 165.7 +/-14.35 mg/dl); format: functional
Rattus norvegicus [12] = assay: Antidiabetic activity against STZ-induced diabetic Rattus norvegicus Wistar albino (rat) assessed as serum HDL level at 20 mg/kg, po administered via intragastric tube for 45 days (reference value: 25.8 +/-1.6 mg/dl); format: functional
Rattus norvegicus [13] = assay: Antidiabetic activity against STZ-induced diabetic Rattus norvegicus Wistar albino (rat) assessed as serum triglyceride level at 20 mg/kg, po administered via intragastric tube for 45 days (reference value: 65.5 +/-7.9 mg/dl); format: functional
Rattus norvegicus [14] = assay: Antidiabetic activity against STZ-induced diabetic Rattus norvegicus Wistar albino (rat) assessed as serum cholesterol level at 20 mg/kg, po administered via intragastric tube for 45 days (reference value: 295.5 +/-17.1 mg/dl); format: functional
Rattus norvegicus [15] = assay: Nephroprotective activity in STZ-induced diabetic Rattus norvegicus Wistar albino (rat) assessed as change in serum total protein level at 20 mg/kg, po administered via intragastric tube for 45 days (reference value: 3.7 +/-0.9 g/dl); format: functional
Rattus norvegicus [16] = assay: Nephroprotective activity in STZ-induced diabetic Rattus norvegicus Wistar albino (rat) assessed as change in serum creatinine level at 20 mg/kg, po administered via intragastric tube for 45 days (reference value: 2.1 +/-0.9 mg/dl); format: functional
Rattus norvegicus [17] = assay: Nephroprotective activity in STZ-induced diabetic Rattus norvegicus Wistar albino (rat) assessed as change in serum uric acid level at 20 mg/kg, po administered via intragastric tube for 45 days (reference value: 1.5 +/-0.9 mg/dl); format: functional
Rattus norvegicus [18] = assay: Nephroprotective activity in STZ-induced diabetic Rattus norvegicus Wistar albino (rat) assessed as change in serum urea level at 20 mg/kg, po administered via intragastric tube for 45 days (reference value: 41.5 +/-4.9 mg/dl); format: functional
Rattus norvegicus [19] = assay: Antidiabetic activity against STZ-induced diabetic Rattus norvegicus Wistar albino (rat) assessed as change in glycosylated hemoglobin of total hemoglobin at 20 mg/kg, po administered via intragastric tube for 45 days (reference value: 0.89 +/-0.03 %); format: functional
Rattus norvegicus [20] = assay: Hepatotoxicity in Rattus norvegicus Wistar albino (rat) assessed as change in plasma ACP level at 20 mg/kg, po administered via intragastric tube for 45 days (reference value: 9.97+/-1.1 ug/dl); format: toxicity, organism-based; parameters: dose 20 mg/kg, route oral; conditions: in vivo, 1080 h
Rattus norvegicus [21] = assay: Hepatotoxicity in Rattus norvegicus Wistar albino (rat) assessed as change in plasma ALP level at 20 mg/kg, po administered via intragastric tube for 45 days (reference value: 49.99+/-4.7 ug/dl); format: toxicity, organism-based; parameters: dose 20 mg/kg, route oral; conditions: in vivo, 1080 h
Rattus norvegicus [22] = assay: Hepatotoxicity in Rattus norvegicus Wistar albino (rat) assessed as change in plasma ALT level at 20 mg/kg, po administered via intragastric tube for 45 days (reference value: 56.72 +/-5.2 ug/dl); format: toxicity, organism-based; parameters: dose 20 mg/kg, route oral; conditions: in vivo, 1080 h
Rattus norvegicus [23] = assay: Hepatotoxicity in Rattus norvegicus Wistar albino (rat) assessed as change in plasma AST level at 20 mg/kg, po administered via intragastric tube for 45 days (reference value: 39.6 +/-3.3 ug/dl); format: toxicity, organism-based; parameters: dose 20 mg/kg, route oral; conditions: in vivo, 1080 h
Rattus norvegicus [24] = assay: Toxicity in Rattus norvegicus Wistar albino (rat) assessed as serum HDL level at 20 mg/kg, po administered via intragastric tube for 45 days (Rvb =65.21 +/-6.9 mg/dl); format: organism-based; parameters: dose 20 mg/kg, route oral; conditions: in vivo, 1080 h
Rattus norvegicus [25] = assay: Toxicity in Rattus norvegicus Wistar albino (rat) assessed as change in hemoglobin level at 20 mg/kg, po administered via intragastric tube for 45 days (reference value: 15.12 +/-1.3 mg/dl ); format: organism-based; parameters: dose 20 mg/kg, route oral; conditions: in vivo, 1080 h
Rattus norvegicus [26] = assay: Toxicity in Rattus norvegicus Wistar albino (rat) assessed as change in body weight at 20 mg/kg, po administered via intragastric tube for 45 days (reference value: 238.2 +/-7.3 g); format: organism-based; parameters: dose 20 mg/kg, route oral; conditions: in vivo, 1080 h
Rattus norvegicus [27] = assay: Toxicity in Rattus norvegicus Wistar albino (rat) assessed as serum triglyceride level at 20 mg/kg, po administered via intragastric tube for 45 days (Rvb =17.72 +/-1.3 mg/dl); format: organism-based; parameters: dose 20 mg/kg, route oral; conditions: in vivo, 1080 h
Rattus norvegicus [28] = assay: Toxicity in Rattus norvegicus Wistar albino (rat) assessed as serum cholesterol level at 20 mg/kg, po administered via intragastric tube for 45 days (reference value: 97.72 +/-7.3 mg/dl); format: organism-based; parameters: dose 20 mg/kg, route oral; conditions: in vivo, 1080 h
Rattus norvegicus [29] = assay: Nephrotoxicity in Rattus norvegicus Wistar albino (rat) assessed as change in serum total protein level at 20 mg/kg, po administered via intragastric tube for 45 days (reference value: 8.12 +/- 1.0 g/dl ); format: toxicity, organism-based; parameters: dose 20 mg/kg, route oral; conditions: in vivo, 1080 h
Rattus norvegicus [30] = assay: Nephrotoxicity in Rattus norvegicus Wistar albino (rat) assessed as change in creatinine level in serum at 20 mg/kg, po administered via intragastric tube for 45 days (reference value: 1.62 +/- 0.2 mg/dl ); format: toxicity, organism-based; parameters: dose 20 mg/kg, route oral; conditions: in vivo, 1080 h
Rattus norvegicus [31] = assay: Nephrotoxicity in Rattus norvegicus Wistar albino (rat) assessed as change in uric acid level in serum at 20 mg/kg, po administered via intragastric tube for 45 days (reference value: 0.96 +/- 0.93 mg/dl ); format: toxicity, organism-based; parameters: dose 20 mg/kg, route oral; conditions: in vivo, 1080 h
Rattus norvegicus [32] = assay: Nephrotoxicity in Rattus norvegicus Wistar albino (rat) assessed as change in urea level in serum at 20 mg/kg, po administered via intragastric tube for 45 days (reference value: 24.12 +/- 2.3 mg/dl ); format: toxicity, organism-based; parameters: dose 20 mg/kg, route oral; conditions: in vivo, 1080 h
Rattus norvegicus [33] = assay: Toxicity in Rattus norvegicus Wistar albino (rat) assessed as change in glycosylated hemoglobin of total hemoglobin at 20 mg/kg, po administered via intragastric tube for 45 days (reference value: 0.52 +/-0.03 % ); format: organism-based; parameters: dose 20 mg/kg, route oral; conditions: in vivo, 1080 h

Oc1cc(O)c2c(c1)OC(c1ccc(O)c(O)c1)C(O)C2 (stereo not drawn) [CATECHIN]
Activity (Rattus norvegicus [1]): Active
Activity (Rattus norvegicus [2]): Active
Activity (Rattus norvegicus [3]): Active
Activity (Rattus norvegicus [4]): 14.98 mg/dL
Activity (Rattus norvegicus [5]): 209.12 g
Activity (Rattus norvegicus [6]): 11.98 µg/dL
Activity (Rattus norvegicus [7]): 54.29 µg/dL
Activity (Rattus norvegicus [8]): 59.71 µg/dL
Activity (Rattus norvegicus [9]): 41.95 µg/dL
Activity (Rattus norvegicus [10]): 13.21 mg/dL
Activity (Rattus norvegicus [11]): 91.28 mg/dL
Activity (Rattus norvegicus [12]): 60.56 mg/dL
Activity (Rattus norvegicus [13]): 20.81 mg/dL
Activity (Rattus norvegicus [14]): 109.21 mg/dL
Activity (Rattus norvegicus [15]): 6.58 g/dL
Activity (Rattus norvegicus [16]): 1.78 mg/dL
Activity (Rattus norvegicus [17]): 0.99 mg/dL
Activity (Rattus norvegicus [18]): 29.98 mg/dL
Activity (Rattus norvegicus [19]): 0.57%

Oc1cc(O)c2c(c1)O[C@H](c1ccc(O)c(O)c1)[C@@H](O)C2 [CATECHIN]
Activity (Rattus norvegicus [20]): 9.52 µg/dL
Activity (Rattus norvegicus [21]): 50.87 µg/dL
Activity (Rattus norvegicus [22]): 55.18 µg/dL
Activity (Rattus norvegicus [23]): 36.12 µg/dL
Activity (Rattus norvegicus [24]): 68.65 mg/dL
Activity (Rattus norvegicus [25]): 14.98 mg/dL
Activity (Rattus norvegicus [26]): 239.67 g
Activity (Rattus norvegicus [27]): 18.18 mg/dL
Activity (Rattus norvegicus [28]): 98.34 mg/dL
Activity (Rattus norvegicus [29]): 8.98 g/dL
Activity (Rattus norvegicus [30]): 1.98 mg/dL
Activity (Rattus norvegicus [31]): 0.98 mg/dL
Activity (Rattus norvegicus [32]): 23.98 mg/dL
Activity (Rattus norvegicus [33]): 0.46%
